Patent US6632838B1, “Use of bissulfonamides for producing medicines for the treatment of hyperlipidemia” (Aventis Pharma Deutschland GmbH, priority 1999, dated 2003)

How the values were obtained:
[1] = system: human LDL receptor gene promoter coupled to firefly luciferase reporter gene in Hep-G2 cell line; assay: In vitro determination of LDL receptor induction using the luciferase assay; assay type: cell-based; details: luminescence, DMSO control=100%
Procedure: 1) In Vitro Determination of LDL Receptor Induction Using the Luciferase Assay
LDL-receptor induction is determined using the luciferase assay as follows. A regulatory DNA fragment (4 kb) of the human LDL receptor gene containing the complete promoter region is coupled to the firefly luciferase reporter gene and stably transfixed into a Hep-G2 cell line. Cells from this line were seeded out on collagen-coated 96-well plates in MEM (minimum essential medium). After 24 hours in culture, the test substances, dissolved in DMSO, were added in final concentrations of 10 nM to 10 μM (final DMSO concentration=2%). The substances were incubated for 12-18 hours overnight (4 wells/conc. in each case), then D-luciferin was added as substrate for the luciferase, and the luminescence was measured. The measured luminescence as a percentage of the control (control=100%) incubated only with DMSO indicates the extent of the relative LDL receptor induction (Table 2).
Further details of the method are described in Current Protocols in Molecular Biology, F. M. Ausubel, R. Brent, R. E. Kingston, D. D. Moore, J. G. Seidman, J. A. Smith, and K. Struhl, eds., J. Wiley and Sons Inc., U.S.A.

[2] = system: hyperlipemic hamsters (plasma lipid level); assay: In vivo reduction in LDL cholesterol / plasma lipid level in hyperlipemic hamsters; set-up: species or system Syrian hamster; details: vs placebo-treated control
Source text: In Vivo Determination of Reduction in LDL Cholesterol in the Hamster; Cholesterol-lowering Effect of LDL Receptor Inducers in Hyperlipemic Hamsters
In this animal experiment, the effect of LDL receptor inducers after bolus adiminstration to hamsters on a lipid-rich diet was investigated.
The experimental animals used were male Syrian hamsters (Charles River) with an average body weight of 100 to 120 g at the start of adaption. The animals were divided into groups (n=6) on the basis of the body weight. Severe hyperlipidemia was induced by feeding with a diet supplemented with 15% butter and 3% cholesterol. The treatment started after preliminary feeding for 2 weeks. The test substances were administered orally by gavage once a day over a period of 10 days. The plasma lipid level was analyzed after 10 days.

[3] = 20 mg/kg p.o. once a day for ten days
[4] = 40 mg/kg p.o. once a day for ten days

Row | SMILES | LDL receptor induction (% of control) ([1]; 1.5 μM) | LDL receptor induction (% of control) ([1]; 4 μM) | LDL receptor induction (% of control) ([1]; 0.15 μM) | further results
1 | CCN(CC)S(=O)(=O)c1cc(S(=O)(=O)N(CC)CC)c(N2CCN(C)CC2)cc1NCc1ccccc1 [Example 16] | 214% (1.5 μM) | – | – | –
2 | CN1CCN(c2cc(N3CC=C(c4ccccc4)CC3)c(S(=O)(=O)N(C)c3ccccc3)cc2S(=O)(=O)N(C)c2ccccc2)CC1 [Example 108] | 191% | 249% | – | –
3 | CN1CCN(c2cc(NCc3ccccc3)c(S(=O)(=O)NC3CCCCC3)cc2S(=O)(=O)NC2CCCCC2)CC1 [Example 2] | 155% | 227% | – | –
4 | CCN(CCN(C)C)c1cc(N2CCN(c3ccccc3)CC2)c(S(=O)(=O)NCCc2cccs2)cc1S(=O)(=O)NCCc1cccs1 [Example 94] | 194% | 321% | – | –
5 | CN1CCN(c2cc(NCCCc3ccccc3)c(S(=O)(=O)N3CCCC3)cc2S(=O)(=O)N2CCCC2)CC1 [Example 26] | 206% | – | 146% | –
6 | CCN(CCN(C)C)c1cc(N2CCN(c3ccccc3)CC2)c(S(=O)(=O)N2CCCCC2)cc1S(=O)(=O)N1CCCCC1 [Example 64, N-Ethyl-N′,N′-dimethyl-N-[5-(4-phenyl-piperazin-1-yl)-2,4-bis-(piperidine-1-sulfonyl)-phenyl]ethane-1,2-diamine] | – | – | – | melting point: 116 to 118 °C
7 | CCN(CCN(C)C)c1cc(N2CCN(c3ccccc3)CC2)c(S(=O)(=O)NCCCOC)cc1S(=O)(=O)NCCCOC [Example 96] | 278% | 326% | 138% | –
8 | CCN(CCN(C)C)c1cc(NCCCCc2ccccc2)c(S(=O)(=O)N2CCCCC2)cc1S(=O)(=O)N1CCCCC1 [Example 70] | – | 238% | 194% | –
9 | CCN(CCN(C)C)c1cc(N2CCC(c3ccccc3)CC2)c(S(=O)(=O)NCCc2cccs2)cc1S(=O)(=O)NCCc1cccs1 [Example 93] | 293% | 337% | 213% | –
10 | CN1CCN(c2cc(NCCCc3ccccc3)c(S(=O)(=O)N3CCOCC3)cc2S(=O)(=O)N2CCOCC2)CC1 [Example 15] | 243% | – | 137% | –
11 | CN1CCN(c2cc(NCc3ccccc3)c(S(=O)(=O)N(C)c3ccccc3)cc2S(=O)(=O)N(C)c2ccccc2)CC1 [Example 9] | 402% | – | 244% | –
12 | CN1CCN(c2cc(NCc3ccccn3)c(S(=O)(=O)N(C)c3ccccc3)cc2S(=O)(=O)N(C)c2ccccc2)CC1 [Example 10] | – | 270% | 144% | –
13 | CN1CCN(c2cc(N3CCN(C)CC3)c(S(=O)(=O)N(C)Cc3ccccc3)cc2S(=O)(=O)N(C)Cc2ccccc2)CC1 [Example 3] | 414% | – | 184% | –
14 | CCN(CCN(C)C)c1cc(NC2CCN(Cc3ccccc3)CC2)c(S(=O)(=O)N2CCCCC2)cc1S(=O)(=O)N1CCCCC1 [Example 65] | 292% | 314% | 177% | –
15 | CC(C)CNS(=O)(=O)c1cc(S(=O)(=O)NCC(C)C)c(N2CCN(C)CC2)cc1NCc1ccccc1 [Example 12] | 244% (1.5 μM) | – | – | –
16 | CN1CCN(c2cc(NCc3ccccc3)c(S(=O)(=O)N3CCCC3)cc2S(=O)(=O)N2CCCC2)CC1 [Example 5] | – | 240% (4 μM) | – | –
17 | CN1CCN(c2cc(N3CCN(C)CC3)c(S(=O)(=O)N3CCCCC3)cc2S(=O)(=O)N2CCCCC2)CC1 [Example 8] | – | 190% (4 μM) | – | –
18 | COCCCNS(=O)(=O)c1cc(S(=O)(=O)NCCCOC)c(N2CCN(c3ccccc3)CC2)cc1NCCN1CCCC1 [Example 102] | 239% | 298% | – | –
19 | CN(C)CCNc1cc(NCc2ccc(Cl)c(Cl)c2)c(S(=O)(=O)N2CCCCC2)cc1S(=O)(=O)N1CCCCC1 [Example 98] | 249% | 285% | – | Relative change in the plasma lipid level: LDL cholesterol [2, 3]: −26%; Relative change in the plasma lipid level: Total cholesterol [2, 3]: −23%; Relative change in the plasma lipid level: Triglycerides [2, 3]: −27%; Relative change in the plasma lipid level: LDL cholesterol [2, 4]: −44%; Relative change in the plasma lipid level: Total cholesterol [2, 4]: −46%; Relative change in the plasma lipid level: Triglycerides [2, 4]: −68%
20 | CN(C)CCNc1cc(NCc2cccc(Cl)c2)c(S(=O)(=O)N2CCCCC2)cc1S(=O)(=O)N1CCCCC1 [Example 99] | 247% | 322% | – | –
21 | CN1CCN(c2cc(NCCCc3ccccc3)c(S(=O)(=O)N(C)c3ccccc3)cc2S(=O)(=O)N(C)c2ccccc2)CC1 [Example 25] | 189% | – | 168% | –
22 | CN(c1ccccc1)S(=O)(=O)c1cc(S(=O)(=O)N(C)c2ccccc2)c(N2CCNCC2)cc1NCc1ccccn1 [Example 46] | 223% | – | 152% | –
23 | CCN(CCN(C)C)c1cc(NCCc2ccc(OC)c(OC)c2)c(S(=O)(=O)NCCc2cccs2)cc1S(=O)(=O)NCCc1cccs1 [Example 92] | 213% | 233% | – | –
24 | O=S(=O)(NCCc1cccs1)c1cc(S(=O)(=O)NCCc2cccs2)c(NCc2cccc3ccccc23)cc1NCCN1CCCC1 [Example 95] | 267% | 301% | 198% | Relative change in the plasma lipid level: LDL cholesterol [2, 3]: −44%; Relative change in the plasma lipid level: Total cholesterol [2, 3]: −45%; Relative change in the plasma lipid level: Triglycerides [2, 3]: −61%; Relative change in the plasma lipid level: LDL cholesterol [2, 4]: −49%; Relative change in the plasma lipid level: Total cholesterol [2, 4]: −50%; Relative change in the plasma lipid level: Triglycerides [2, 4]: −73%
25 | O=S(=O)(c1cc(S(=O)(=O)N2CCCCC2)c(NCc2cccc(Cl)c2)cc1NCCN1CCCC1)N1CCCCC1 [Example 84] | 199% | 223% | – | –
26 | CCN(CCN(C)C)S(=O)(=O)c1cc(S(=O)(=O)N(CC)CCN(C)C)c(N2CCN(C)CC2)cc1N(C)Cc1ccccc1 [Example 61] | – | 190% (4 μM) | – | –
